Results reported in US20090123907A1 (priority 2004, published 2009).

What was measured:
platelets = assay: Platelet rich plasma supplemented with 2% lysine citrate, 25 days storage; assay type: cell-based; settings: room temperature
Description: […]. In this experiment plasma is centrifuged to create platelet rich plasma (PRP). […]. For the first fifteen days the platelet parameters remain essentially unchanged. During the next five day period (days 16-20) the platelet count drifts down slightly and LDH level increases slightly. During the last five days (days 21-25), the platelet count drops off rather precipitously and the LDH level rises rather steeply. Yet clotting time remains relatively constant.

[1] = Level of calcium measured in blood with citrate anticoagulants
Description: Lysine citrate is compared to traditional sodium citrate. The various citrate levels are expressed as a weight percentage of citrate so that equivalent levels have the same amount of citrate. The same blood was used throughout so that all of the samples started with the same calcium concentration. Since citrate is an effective chelator of calcium one expects the measured level of calcium to decrease with increasing levels of citrate as more and more of the calcium is “tied up” by the citrate. There is an equilibrium between free measurable calcium and calcium associated with citrate molecules. As the concentration of citrate is increased, calcium levels are lowered as there is a higher and higher probability that a given calcium ion will be interacting with a citrate molecule. […] There are at least two different ways of interpreting phenomenon. It is possible that when lysine molecules interact with citrate molecules, the interaction somehow prevents the chelation of calcium. This would explain the higher calcium measurements because there would effectively be a lower level of citrate present. […] That too would explain the higher measured calcium level but does little to solve the remainder of the conundrum. […] Thus, another advantage of lysine citrate is enhanced patient safety and a simpler plasmapheresis set up since it will not longer be necessary to administer protective doses of calcium.

red blood cells = assay: Red blood cell integrity during storage at 4° C.; assay type: cell-based; parameters: MCV Day 20 / MCV Day 33: unit not given here; settings: for RBC Day 1: whole blood; for MCV Day 20 / MCV Day 33: whole blood stored at 4° C.
Protocol: In this experiment whole blood (an aliquot of which clotted within 10 minutes without anticoagulant) was modified by adding a number of different anticoagulant compositions. Sodium citrate was used as an anticoagulant at 0.65%, 0.75% and 0.9% by weight. These are all higher citrate levels than the usual 0.4% by weight. Amino acid citrates (lysine or arginine) were used at 0.65%, 0.75% and 0.9% by weight based on the weight of the citric acid. The amino acid counterion was used in sufficient quantity to adjust the pH as explained above.
To judge red cell condition the blood was counted and various other measurements were taken initially and after 20 and 33 days of storage at 4° C. Apparent initial/differences in RBC counts are due to dilution caused by adding extra anticoagulant. Mean cell volume (MCV) is a red cell index that is a useful measure of red cell health. […] It is believed that a citrate level of at least about 1.0% by weight (i.e., more than two times the usual amount) is necessary to ensure against all activation of plasma proteins. […] On the other hand, amino acid citrates, which are very effective anticoagulants, are also effective at preventing red cell damage.

SMILES: NCCCC[C@H](N)C(=O)O.O=C(O)CC(O)(CC(=O)O)C(=O)O [Lysine Citrate, lysine citrate]
- Clotting time (platelets; Day 1, PRP): 30 s
- Count (platelets) (platelets; Day 1, PRP): 3.80 × 10^5 per μl
- LDH (platelets; Day 1, PRP): 106 IU/L
- Clotting time (platelets; Day 2, PRP): 30 s
- Count (platelets) (platelets; Day 2, PRP): 3.75 × 10^5 per μl
- LDH (platelets; Day 2, PRP): 108 IU/L
- Clotting time (platelets; Day 3, PRP): 30 s
- Count (platelets) (platelets; Day 3, PRP): 3.76 × 10^5 per μl
- LDH (platelets; Day 3, PRP): 109 IU/L
- Clotting time (platelets; Day 4, PRP): 30 s
- Count (platelets) (platelets; Day 4, PRP): 3.80 × 10^5 per μl
- LDH (platelets; Day 4, PRP): 108 IU/L
- Clotting time (platelets; Day 5, PRP): 31 s
- Count (platelets) (platelets; Day 5, PRP): 3.76 × 10^5 per μl
- LDH (platelets; Day 5, PRP): 108 IU/L
- Clotting time (platelets; Day 6, PRP): 31 s
- Count (platelets) (platelets; Day 6, PRP): 3.75 × 10^5 per μl
- LDH (platelets; Day 6, PRP): 106 IU/L
- Clotting time (platelets; Day 7, PRP): 32 s
- Count (platelets) (platelets; Day 7, PRP): 3.76 × 10^5 per μl
- LDH (platelets; Day 7, PRP): 109 IU/L
- Clotting time (platelets; Day 8, PRP): 30 s
- Count (platelets) (platelets; Day 8, PRP): 3.76 × 10^5 per μl
- LDH (platelets; Day 8, PRP): 109 IU/L
- Clotting time (platelets; Day 9, PRP): 31 s
- Count (platelets) (platelets; Day 9, PRP): 3.80 × 10^5 per μl
- LDH (platelets; Day 9, PRP): 108 IU/L
- Clotting time (platelets; Day 10, PRP): 30 s
- Count (platelets) (platelets; Day 10, PRP): 3.77 × 10^5 per μl
- LDH (platelets; Day 10, PRP): 109 IU/L
- Clotting time (platelets; Day 11, PRP): 29 s
- Count (platelets) (platelets; Day 11, PRP): 3.77 × 10^5 per μl
- LDH (platelets; Day 11, PRP): 109 IU/L
- Clotting time (platelets; Day 12, PRP): 30 s
- Count (platelets) (platelets; Day 12, PRP): 3.75 × 10^5 per μl
- LDH (platelets; Day 12, PRP): 108 IU/L
- Clotting time (platelets; Day 13, PRP): 30 s
- Count (platelets) (platelets; Day 13, PRP): 3.81 × 10^5 per μl
- LDH (platelets; Day 13, PRP): 110 IU/L
- Clotting time (platelets; Day 14, PRP): 31 s
- Count (platelets) (platelets; Day 14, PRP): 3.80 × 10^5 per μl
- LDH (platelets; Day 14, PRP): 110 IU/L
- Clotting time (platelets; Day 15, PRP): 30 s
- Count (platelets) (platelets; Day 15, PRP): 3.76 × 10^5 per μl
- LDH (platelets; Day 15, PRP): 109 IU/L
- Clotting time (platelets; Day 16, PRP): 29 s
- Count (platelets) (platelets; Day 16, PRP): 3.75 × 10^5 per μl
- LDH (platelets; Day 16, PRP): 109 IU/L
- Clotting time (platelets; Day 17, PRP): 30 s
- Count (platelets) (platelets; Day 17, PRP): 3.74 × 10^5 per μl
- LDH (platelets; Day 17, PRP): 108 IU/L
- Clotting time (platelets; Day 18, PRP): 30 s
- Count (platelets) (platelets; Day 18, PRP): 3.76 × 10^5 per μl
- LDH (platelets; Day 18, PRP): 110 IU/L
- Clotting time (platelets; Day 19, PRP): 31 s
- Count (platelets) (platelets; Day 19, PRP): 3.74 × 10^5 per μl
- LDH (platelets; Day 19, PRP): 111 IU/L
- Clotting time (platelets; Day 20, PRP): 30 s
- Count (platelets) (platelets; Day 20, PRP): 3.74 × 10^5 per μl
- LDH (platelets; Day 20, PRP): 111 IU/L
- Clotting time (platelets; Day 21, PRP): 30 s
- Count (platelets) (platelets; Day 21, PRP): 3.56 × 10^5 per μl
- LDH (platelets; Day 21, PRP): 103 IU/L
- Clotting time (platelets; Day 22, PRP): 31 s
- Count (platelets) (platelets; Day 22, PRP): 3.42 × 10^5 per μl
- LDH (platelets; Day 22, PRP): 105 IU/L
- Clotting time (platelets; Day 23, PRP): 26 s
- Count (platelets) (platelets; Day 23, PRP): 3.28 × 10^5 per μl
- LDH (platelets; Day 23, PRP): 122 IU/L
- Clotting time (platelets; Day 24, PRP): 29 s
- Count (platelets) (platelets; Day 24, PRP): 2.91 × 10^5 per μl
- LDH (platelets; Day 24, PRP): 159 IU/L
- Clotting time (platelets; Day 25, PRP): 26 s
- Count (platelets) (platelets; Day 25, PRP): 2.24 × 10^5 per μl
- LDH (platelets; Day 25, PRP): 279 IU/L
- Level of calcium measured ([1]; Citrate Level 0.01%): 9.2 mg/dL
- Level of calcium measured ([1]; Citrate Level 0.05%): 9.1 mg/dL
- Level of calcium measured ([1]; Citrate Level 0.1%): 7.1 mg/dL
- Level of calcium measured ([1]; Citrate Level 0.25%): 4.8 mg/dL
- Level of calcium measured ([1]; Citrate Level 0.5%): 1.6 mg/dL
- Level of calcium measured ([1]; Citrate Level 1%): 0.4 mg/dL
- RBC Day 1 (red blood cells; anticoagulant 0.65 wgt %): 5.37 10^6/μl
- MCV Day 20 (red blood cells; anticoagulant 0.65 wgt %): 93.0
- MCV Day 33 (red blood cells; anticoagulant 0.65 wgt %): 93.8
- RBC Day 1 (red blood cells; anticoagulant 0.75 wgt %): 6.78 10^6/μl
- MCV Day 20 (red blood cells; anticoagulant 0.75 wgt %): 92.7
- MCV Day 33 (red blood cells; anticoagulant 0.75 wgt %): 92.7
- RBC Day 1 (red blood cells; anticoagulant 0.90 wgt %): 5.82 10^6/μl
- MCV Day 20 (red blood cells; anticoagulant 0.90 wgt %): 92.2
- MCV Day 33 (red blood cells; anticoagulant 0.90 wgt %): 92.9

SMILES: O=C([O-])CC(O)(CC(=O)[O-])C(=O)[O-].[Na+].[Na+].[Na+] [Na Citrate, sodium citrate, reference compound]
- Level of calcium measured ([1]; Citrate Level 0.01%): 9.2 mg/dL
- Level of calcium measured ([1]; Citrate Level 0.05%): 8.7 mg/dL
- Level of calcium measured ([1]; Citrate Level 0.1%): 5.3 mg/dL
- Level of calcium measured ([1]; Citrate Level 0.25%): 2.5 mg/dL
- Level of calcium measured ([1]; Citrate Level 0.5%): 0.6 mg/dL
- Level of calcium measured ([1]; Citrate Level 1%): 0 mg/dL
- RBC Day 1 (red blood cells; anticoagulant 0.65 wgt %): 5.43 10^6/μl
- MCV Day 20 (red blood cells; anticoagulant 0.65 wgt %): 97.1
- MCV Day 33 (red blood cells; anticoagulant 0.65 wgt %): 94.3
- RBC Day 1 (red blood cells; anticoagulant 0.75 wgt %): 5.86 10^6/μl
- MCV Day 20 (red blood cells; anticoagulant 0.75 wgt %): 98.7
- MCV Day 33 (red blood cells; anticoagulant 0.75 wgt %): 103.2
- RBC Day 1 (red blood cells; anticoagulant 0.90 wgt %): 6.07 10^6/μl
- MCV Day 20 (red blood cells; anticoagulant 0.90 wgt %): 97.8
- MCV Day 33 (red blood cells; anticoagulant 0.90 wgt %): 103.3
